Source: the supplement of paper PMC8960247
Structures can show the parent of a compound that is named as a salt. ± gives the standard error.

System: 621-103 (TSC2-rescued)
Assay: relative viability vs DMSO; higher = less cytotoxic
Conditions: 0.0001 µM; serum: 10% FBS; 72 h
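Note: immortalized renal angiomyolipoma cells stably carrying empty vector or TSC2, dosed in 384-well plates in DMEM, viability normalized to vehicle-treated wells within each plate.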

Q: Which relative viability does the source give for COc1cc2c(N3CCN(C(=O)Nc4ccc(OC(C)C)cc4)CC3)ncnc2cc1OCCCN1CCCCC1 [Tandutinib (MLN518)] here?
A: The relative viability was 99.4 ± 1.1%.

Q: Which relative viability does the source give for CNC(=O)c1cc(COc2nnc(Nc3ccc(Cl)cc3)c3ccoc23)ccn1 [Telatinib (BAY57-9352)] here?
A: Its relative viability is 114 ± 2.4%.

Q: Which relative viability does the source give for CCCc1nc2c(C)cc(-c3nc4ccccc4n3C)cc2n1Cc1ccc(-c2ccccc2C(=O)O)cc1 [Telmisartan] here?
A: The relative viability was 101 ± 2.7%.

Q: With C[C@H](Cn1cnc2c(N)ncnc21)OCP(=O)(O)O [Tenofovir] as the compound, how does the relative viability read?
A: Its relative viability is 102 ± 5.5%.

Q: Which relative viability does the source give for CN(C/C=C/C#CC(C)(C)C)Cc1cccc2ccccc12 [Terbinafine HCl] here?
A: Its relative viability is 101 ± 3.3%.

Q: How did the relative viability turn out when CCC(=O)O[C@H]1CC[C@H]2[C@@H]3CCC4=CC(=O)CC[C@]4(C)[C@H]3CC[C@]12C [Testosterone propionate (Agovirin)] was run?
A: The relative viability was 109 ± 3.1%.

Q: How did the relative viability turn out when CCCCNc1ccc(C(=O)OCCN(C)C)cc1 [Tetracaine HCl] was run?
A: Its relative viability is 72.9 ± 4.8%.

Q: With C[N+]1(C)[C@@H]2C[C@@H](OC(=O)C(O)(c3cccs3)c3cccs3)C[C@H]1[C@@H]1O[C@@H]12 [Tiotropium Bromide hydrate] as the compound, how does the relative viability read?
A: Its relative viability is 77.6 ± 0.97%.

Q: C[N+]1(C)[C@@H]2C[C@@H](OC(=O)C(O)(c3cccs3)c3cccs3)C[C@H]1[C@@H]1O[C@@H]12 [Tiotropium] was tested. Which relative viability did it give?
A: Its relative viability is 82.2 ± 1.7%.

Q: O=c1oc2cc(O)ccc2s1 [Tioxolone] was tested. Which relative viability did it give?
A: Its relative viability is 71.1 ± 7.9%.

Q: For O=c1n(CCCN2CCN(c3cccc(Cl)c3)CC2)nc2ccccn12 [Trazodone HCl], which relative viability is on record?
A: The relative viability was 77.1 ± 6.5%.

Q: How did the relative viability turn out when CC(/C=C/C(=O)NO)=C\[C@@H](C)C(=O)c1ccc(N(C)C)cc1 [Trichostatin A] was run?
A: The relative viability was 100.8 ± 0.21%.

Q: Which relative viability does the source give for C[C@]12CC[C@H]3[C@@H](CC[C@@]45O[C@@H]4C(O)=C(C#N)C[C@]35C)[C@@H]1CC[C@@H]2O [Trilostane] here?
A: Its relative viability is 102 ± 1.8%.

Q: Which relative viability does the source give for CN1[C@@H]2CC[C@H]1C[C@@H](OC(=O)c1c[nH]c3ccccc13)C2 [Tropisetron HCl] here?
A: The relative viability was 89.7 ± 3%.

Q: For O=C(O[C@H]1C[C@H]2CC[C@@H](C1)[N+]21CCCC1)C(O)(c1ccccc1)c1ccccc1 [Trospium chloride (Sanctura)], which relative viability is on record?
A: The relative viability was 82.71 ± 0.81%.

Q: CN1CCc2c(c3ccccc3n2Cc2ccc(C(=O)NO)cc2)C1 [Tubastatin A HCl] was tested. Which relative viability did it give?
A: The relative viability was 101 ± 2.1%.

Q: For N#CC(=C(/N)Sc1ccccc1N)/C(C#N)=C(\N)Sc1ccccc1N [U0126-EtOH], which relative viability is on record?
A: The relative viability was 105 ± 2.4%.

Q: With NC(=O)c1cccc(-c2cccc(OC(=O)NC3CCCCC3)c2)c1 [URB597] as the compound, how does the relative viability read?
A: The relative viability was 103 ± 3.1%.

Q: For CC(C)(C)C#Cc1cc(N(C(=O)[C@H]2CC[C@H](C)CC2)[C@H]2CC[C@H](O)CC2)c(C(=O)O)s1 [VX-222], which relative viability is on record?
A: Its relative viability is 105.5 ± 0.52%.

Q: NC(=O)c1ccc(N(C(N)=O)c2c(F)cccc2F)nc1-c1ccc(F)cc1F [VX-702] was tested. Which relative viability did it give?
A: The relative viability was 101.5 ± 0.42%.

Q: Which relative viability does the source give for O=c1ncn2nc(Sc3ccc(F)cc3F)ccc2c1-c1c(Cl)cccc1Cl [VX-745] here?
A: The relative viability was 99.1 ± 1%.

Q: CCO[C@@H]1OC(=O)C[C@@H]1NC(=O)[C@@H]1CCCN1C(=O)[C@@H](NC(=O)c1ccc(N)c(Cl)c1)C(C)(C)C [VX-765] was tested. Which relative viability did it give?
A: The relative viability was 111 ± 2.9%.

Q: CC(C)(C)c1cc(C(C)(C)C)c(NC(=O)c2c[nH]c3ccccc3c2=O)cc1O [VX-770] was tested. Which relative viability did it give?
A: Its relative viability is 101 ± 4.3%.

Q: For CCCCC(=O)N(Cc1ccc(-c2ccccc2-c2nnn[nH]2)cc1)[C@H](C(=O)O)C(C)C [Valsartan], which relative viability is on record?
A: Its relative viability is 101 ± 3.4%.

Q: How did the relative viability turn out when COc1cc2/c(=N/c3ccc(Br)cc3F)nc[nH]c2cc1OCC1CCN(C)CC1 [Vandetanib] was run?
A: Its relative viability is 102 ± 2.5%.

Q: CCCc1nc(C)c2c(=O)nc(-c3cc(S(=O)(=O)N4CCN(CC)CC4)ccc3OCC)[nH]n12 [Vardenafil (Vivanza)] was tested. Which relative viability did it give?
A: The relative viability was 101 ± 2.4%.

Q: Clc1ccc(Nc2nnc(Cc3ccncc3)c3ccccc23)cc1 [Vatalanib] was tested. Which relative viability did it give?
A: The relative viability was 104 ± 1.1%.

Q: How did the relative viability turn out when COc1ccc(C(CN(C)C)C2(O)CCCCC2)cc1 (configuration not stated) [Venlafaxine HCl] was run?
A: Its relative viability is 85.8 ± 1.9%.

Same assay, conditions: 0.001 µM; serum: 10% FBS; 72 h

Q: COc1cc2c(N3CCN(C(=O)Nc4ccc(OC(C)C)cc4)CC3)ncnc2cc1OCCCN1CCCCC1 [Tandutinib (MLN518)] was tested. Which relative viability did it give?
A: The relative viability was 99.87 ± 0.96%.

Q: How did the relative viability turn out when CNC(=O)c1cc(COc2nnc(Nc3ccc(Cl)cc3)c3ccoc23)ccn1 [Telatinib (BAY57-9352)] was run?
A: The relative viability was 103.1 ± 0.34%.

Q: CCCc1nc2c(C)cc(-c3nc4ccccc4n3C)cc2n1Cc1ccc(-c2ccccc2C(=O)O)cc1 [Telmisartan] was tested. Which relative viability did it give?
A: Its relative viability is 97.8 ± 4.9%.

Q: How did the relative viability turn out when C[C@H](Cn1cnc2c(N)ncnc21)OCP(=O)(O)O [Tenofovir] was run?
A: The relative viability was 102 ± 1.9%.

Q: CN(C/C=C/C#CC(C)(C)C)Cc1cccc2ccccc12 [Terbinafine HCl] was tested. Which relative viability did it give?
A: Its relative viability is 99.3 ± 5.4%.

Q: How did the relative viability turn out when CCC(=O)O[C@H]1CC[C@H]2[C@@H]3CCC4=CC(=O)CC[C@]4(C)[C@H]3CC[C@]12C [Testosterone propionate (Agovirin)] was run?
A: Its relative viability is 105 ± 1.9%.

Q: With CCCCNc1ccc(C(=O)OCCN(C)C)cc1 [Tetracaine HCl] as the compound, how does the relative viability read?
A: The relative viability was 91.42 ± 0.14%.

Q: For C[N+]1(C)[C@@H]2C[C@@H](OC(=O)C(O)(c3cccs3)c3cccs3)C[C@H]1[C@@H]1O[C@@H]12 [Tiotropium Bromide hydrate], which relative viability is on record?
A: The relative viability was 97.55 ± 0.64%.

Q: For C[N+]1(C)[C@@H]2C[C@@H](OC(=O)C(O)(c3cccs3)c3cccs3)C[C@H]1[C@@H]1O[C@@H]12 [Tiotropium], which relative viability is on record?
A: The relative viability was 96 ± 3.8%.

Q: O=c1oc2cc(O)ccc2s1 [Tioxolone] was tested. Which relative viability did it give?
A: The relative viability was 80 ± 6.3%.

Q: How did the relative viability turn out when O=c1n(CCCN2CCN(c3cccc(Cl)c3)CC2)nc2ccccn12 [Trazodone HCl] was run?
A: The relative viability was 84.3 ± 2.8%.

Q: How did the relative viability turn out when CC(/C=C/C(=O)NO)=C\[C@@H](C)C(=O)c1ccc(N(C)C)cc1 [Trichostatin A] was run?
A: The relative viability was 101 ± 1.4%.

Q: C[C@]12CC[C@H]3[C@@H](CC[C@@]45O[C@@H]4C(O)=C(C#N)C[C@]35C)[C@@H]1CC[C@@H]2O [Trilostane] was tested. Which relative viability did it give?
A: Its relative viability is 106.6 ± 0.25%.

Q: With CN1[C@@H]2CC[C@H]1C[C@@H](OC(=O)c1c[nH]c3ccccc13)C2 [Tropisetron HCl] as the compound, how does the relative viability read?
A: The relative viability was 96.7 ± 2.6%.
